Legend:
[1] = target: hNurr1_RXRγFL (NURR1/RXRγ heterodimer) (Homo sapiens, UniProt P43354+P48443); experiment: Transactivation assay in Cos-7 cells, NURR-1-Gal4 / RXRγ, luciferase reporter; type: cell-based; details: for Emax: COS-7, read-out: hNurr1_RXRγFL Eff (%), efficacy in % relative to the reference XCT0135908 at 2·10^−5 M (=100%); for EC50: Cos-7 cells, overnight incubation
Summary of the method: (§1)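 Cos-7 cells co-transfected with human NURR-1-Gal4 chimera, human RXRα or RXRγ, and 5Gal4pGL3-TK-Luc reporter; compounds added at 10^−4 to 3·10^−10 M final, overnight incubation, luciferase read. Induction over each heterodimer's baseline expressed as % of reference RXR agonist XCT0135908 (2·10^−5 M) taken as 100%.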

[2] = target: hNurr1_RXRαFL (NURR1/RXRα heterodimer) (Homo sapiens, UniProt P19793+P43354); experiment: Transactivation assay in Cos-7 cells, NURR-1-Gal4 / RXRα, luciferase reporter; type: cell-based; details: for Emax: COS-7, read-out: hNurr1_RXRαFL Eff (%), efficacy in % relative to the reference XCT0135908 at 2·10^−5 M (=100%); for EC50: Cos-7 cells, overnight incubation
Chain of hNurr1_RXRαFL (NURR1/RXRα heterodimer) (P19793 whole entry, the tested form may be a part): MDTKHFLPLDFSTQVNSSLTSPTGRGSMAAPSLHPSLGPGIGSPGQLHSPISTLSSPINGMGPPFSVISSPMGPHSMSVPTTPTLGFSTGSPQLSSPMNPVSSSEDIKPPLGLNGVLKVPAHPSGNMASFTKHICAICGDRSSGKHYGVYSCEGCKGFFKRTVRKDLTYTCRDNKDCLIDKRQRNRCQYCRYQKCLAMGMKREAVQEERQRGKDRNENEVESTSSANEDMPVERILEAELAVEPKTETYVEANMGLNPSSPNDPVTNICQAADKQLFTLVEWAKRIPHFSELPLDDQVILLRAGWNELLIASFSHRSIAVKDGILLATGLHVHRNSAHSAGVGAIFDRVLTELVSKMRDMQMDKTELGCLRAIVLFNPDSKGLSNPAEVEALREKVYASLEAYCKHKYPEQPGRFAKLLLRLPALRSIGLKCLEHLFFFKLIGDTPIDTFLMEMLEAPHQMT
Chain of hNurr1_RXRαFL (NURR1/RXRα heterodimer) (P43354 328-598): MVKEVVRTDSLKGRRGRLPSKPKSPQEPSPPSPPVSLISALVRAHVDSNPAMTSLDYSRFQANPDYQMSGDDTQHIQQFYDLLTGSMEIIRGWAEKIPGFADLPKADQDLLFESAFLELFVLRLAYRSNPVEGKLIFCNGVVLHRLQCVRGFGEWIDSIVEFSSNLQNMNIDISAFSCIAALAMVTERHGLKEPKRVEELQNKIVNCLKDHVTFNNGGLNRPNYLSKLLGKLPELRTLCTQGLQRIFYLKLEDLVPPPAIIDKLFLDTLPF
Summary of the method: as §1

[3] = efficacy in % relative to the reference XCT0135908 at 2·10^−5 M (=100%)

Chain of hNurr1_RXRγFL (NURR1/RXRγ heterodimer) (P43354 328-598): as above
Chain of hNurr1_RXRγFL (NURR1/RXRγ heterodimer) (P48443 whole entry, the tested form may be a part): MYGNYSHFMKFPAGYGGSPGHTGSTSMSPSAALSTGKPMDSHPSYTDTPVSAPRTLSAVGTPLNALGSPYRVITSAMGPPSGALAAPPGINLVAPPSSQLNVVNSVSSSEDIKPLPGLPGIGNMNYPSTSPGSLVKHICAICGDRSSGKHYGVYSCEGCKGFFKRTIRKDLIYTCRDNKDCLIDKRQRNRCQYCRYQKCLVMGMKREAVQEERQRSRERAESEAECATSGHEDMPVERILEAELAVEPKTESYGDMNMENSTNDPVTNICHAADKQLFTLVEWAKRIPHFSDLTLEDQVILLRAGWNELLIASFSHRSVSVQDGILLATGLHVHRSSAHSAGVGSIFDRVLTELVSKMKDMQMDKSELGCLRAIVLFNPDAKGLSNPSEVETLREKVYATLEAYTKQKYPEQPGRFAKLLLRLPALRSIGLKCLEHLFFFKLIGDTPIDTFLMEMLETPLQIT

| Structure (SMILES) | melting point [°C] | Emax [1] [%] | EC50 [1] [µM] | Emax [2] [%] | EC50 [2] [µM] | hNurr1_RXRγFL Eff (%) [1, 3] [%] | hNurr1_RXRαFL Eff (%) [2, 3] [%] |
| --- | --- | --- | --- | --- | --- | --- | --- |
| CC(C)(C)c1cccc(S(=O)(=O)n2c(Cc3ccc(C(=O)O)cc3F)cc3cc(C(F)(F)F)ccc32)c1 [Example 67, 4-[[1-[[3-(1,1-dimethylethyl)phenyl]sulfonyl]-5-trifluoromethyl-1H-indol-2-yl]methyl]-3-fluorobenzoic acid] | 177 | 75 | 0.091 | 73 | 0.028 | – | – |
| Cc1c(Cc2ccc(C(=O)O)s2)n(S(=O)(=O)c2cccc(C(C)(C)C)c2)c2ccc(C(F)(F)F)cc12 [Example 85, 5-[[1-[[3-(1,1-dimethylethyl)-phenyl]sulfonyl]-3-methyl-5-trifluoromethyl-1H-indol-2-yl]methyl]-thiophene-2-carboxylic acid] | 171 | 73 | 0.115 | 87 | 0.053 | – | – |
| CC(C)(C)c1cccc(S(=O)(=O)n2c(Cc3ccc(C(=O)O)c(O)c3)cc3cc(C(F)(F)F)ccc32)c1 [Example 56] | 129 | 51 | 0.417 | 82 | 1.16 | – | – |
| CC(C)c1ccc(S(=O)(=O)n2c(Cc3ccc(C(=O)O)c(F)c3)cc3cc(C(F)(F)F)ccc32)cc1 [Example 2, 2-fluoro-4-[[1-[[4-(1-methylethyl)phenyl]sulfonyl]-5-(trifluoromethyl)-1H-indol-2-yl]methyl]benzoic acid] | 197 | 43 | 0.724 | 63 | 0.657 | – | – |
| CC(C)(C)c1cccc(S(=O)(=O)n2c(Cc3ccc(C(=O)NS(=O)(=O)c4ccccc4)cc3)cc3cc(C(F)(F)F)ccc32)c1 [Example 229, N-[4-[[1-[[3-(1,1-dimethylethyl)phenyl]sulfonyl]-5-(trifluoromethyl)-1H-indol-2-yl]methyl]benzoyl]-benzenesulfonamide] | – | 70 | 0.303 | 60 | 0.157 | – | – |
| CC(C)(C)c1ccc(S(=O)(=O)n2c(Cc3ccc(C(=O)O)cc3)cc3cc(Cl)ccc32)cc1 [Example 155, 4-[[1-[4-tert-butyl-phenylsulfonyl]-5-(chloro)-1H-indol-2-yl]methyl]benzoic acid] | – | 59 | 0.468 | 69 | 0.262 | – | – |
| CC1(C)COc2ccc(S(=O)(=O)n3c(Cc4ccc(C(=O)O)cc4)cc4cc(Cl)ccc43)cc21 [Example 183] | – | – | 0.095 | – | 0.047 | 91 | 80 |
| Cc1c(Cc2cccc(C(=O)O)c2)n(S(=O)(=O)c2cccc(C(C)(C)C)c2)c2ccc(C(F)(F)F)cc12 [Example 186, 3-[[1-[[3-(1,1-dimethylethyl)phenyl]sulfonyl]-3-methyl-5-(trifluoromethyl)-1H-indol-2-yl]methyl]-benzoic acid] | – | 68 | 0.288 | 93 | 0.124 | – | – |
| CC(C)(C)c1cccc(S(=O)(=O)n2c(Cc3ccc(C4=NOC(=O)C4)cc3)cc3cc(C(F)(F)F)ccc32)c1 [Example 228, 3-[4-[[1-[[3-(1,1-dimethylethyl)phenyl]sulfonyl]-5-(trifluoromethyl)-1H-indol-2-yl]methyl]-phenyl]-4H-isoxazol-5-one] | – | 63 | 0.335 | 90 | 0.113 | – | – |
| CC(C)(C)c1cccc(S(=O)(=O)n2c(Cc3ccc(C(=O)O)cc3)c(F)c3cc(C(F)(F)F)ccc32)c1 [Example 149, 4-[[1-[[3-(1,1-dimethylethyl)phenyl]sulfonyl]-3-fluoro-5-(trifluoromethyl)-1H-indol-2-yl]methyl]-benzoic acid] | – | 80 | 0.225 | 98 | 0.094 | – | – |
| Cc1ccc(S(=O)(=O)n2c(Cc3ccc(C(=O)O)cc3)cc3cc(C(F)(F)F)ccc32)cc1 [Example 134] | – | 36 | 0.552 | 50 | 0.212 | – | – |
| O=C(O)c1ccc(Cc2cc3cc(Cl)ccc3n2S(=O)(=O)c2ccc(F)c(Cl)c2)cc1 [Example 150, 4-[[1-[3-chloro-4-fluoro-phenylsulfonyl]-5-(chloro)-1H-indol-2-yl]methyl]benzoic acid] | – | 96 | 0.501 | 103 | 0.299 | – | – |
| CC(C)c1ccc(S(=O)(=O)n2c(Cc3ccc(C(=O)O)c(O)c3)cc3cc(C(F)(F)F)ccc32)cc1 [Example 68, 2-hydroxy-4-[[1-[[4-(1-methylethyl)phenyl]sulfonyl]-5-(trifluoromethyl)-1H-indol-2-yl]methyl]-benzoic acid] | – | 43 | 0.553 | 51 | 0.343 | – | – |
| O=C(O)c1ccc(Cc2cc3cc(Cl)ccc3n2S(=O)(=O)c2ccc(OC(F)(F)F)cc2)cc1 [Example 156, 4-[[1-[4-trifluoromethoxy-phenylsulfonyl]-5-(chloro)-1H-indol-2-yl]methyl]benzoic acid] | – | 43 | 1.3 | 69 | 0.638 | – | – |
| O=C(O)c1ccc(Cc2cc3cc(Cl)ccc3n2S(=O)(=O)c2ccc3c(c2)OCCO3)cc1 [Example 157, 4-[[1-[2,3-dihydro-benzo[1,4]dioxin-6-sulfonyl]-5-(chloro)-1H-indol-2-yl]methyl]benzoic acid] | – | 64 | 0.838 | 67 | 0.267 | – | – |
| CCc1ccc(S(=O)(=O)n2c(Cc3ccc(C(=O)O)cc3)cc3cc(C(F)(F)F)ccc32)cc1 [Example 133, 4-[[1-[4-ethyl-phenylsulfonyl]-5-(trifluoromethyl)-1H-indol-2-yl]methyl]benzoic acid] | – | 38 | 0.304 | 49 | 0.177 | – | – |
| CCCc1ccc(S(=O)(=O)n2c(Cc3ccc(C(=O)O)cc3)cc3cc(C(F)(F)F)ccc32)cc1 [Example 139, 4-[[1-[4-propyl-phenylsulfonyl]-5-(trifluoromethyl)-1H-indol-2-yl]methyl]benzoic acid] | – | 43 | 0.344 | 46 | 0.202 | – | – |
